Reference: US9527858B2, “Compounds and compositions for use in phototherapy and in treatment of ocular neovascular disease and cancers” (Mallinckrodt LLC, priority 2009, dated 2016)

How the values were obtained:
AsPC-1 cells = test: Comparative studies, orthotopic AsPC-1 pancreatic tumor in nude mice; type: in vivo; settings: subQ close to the pancreas, one injection per day for 10 days, total dose 20 mg/mouse; sacrificed at day 24; FIG. 4
Method: (§1) In these experiments nude mice weighing approximately 25 grams were used. First, the tail of the pancreas was exposed through an abdominal incision. Then 1×10^6 AsPC-1 cells were injected into the pancreas. The pancreas was replaced in the peritoneal cavity and the incision was closed. A 3-5 mm diameter tumor developed in 10 days.
MNTX was dissolved at 40 mg/mL in phosphate buffered saline (PBS) and then formulated to 100 uL (50 uL drug and 50 uL PBS) and injected subQ close to the pancreas. One injection per day was given for 10 days. The total dose was therefore 20 mg/mouse. For control and comparison, experiments on mice that were 1) not treated, 2) treated with light alone, 3) treated with gemcitibine alone, and 4) treated with Avastin alone using essentially the same procedure as described above were performed. The mice were sacrificed at day 24 and tumor weight was determined.
FIG. 4 provides local tumor burden experimental results for comparative studies involving administration of MNTX, Avastin and Gemcitabine anti-tumor agents. Tumor weight (mg) is shown for tumor conditions of: no treatment (NT); treatment with light alone (light alone); treatment with Gemcitabine alone (GEM); treatment with Avastin alone (Avastin) and treatment with MNTX (MNTX).

AsPC-1 pancreatic cancer = test: Pancreatic tumor growth inhibition studies, orthotopic AsPC-1 pancreatic cancer; type: in vivo, nude mice; settings: I.P. 150 mg/kg daily for 13 days, 10 animals, sacrificed on day 24; control PBS; FIG. 6
Method: In these experiments, the effect of a purified stereoisomer of MNTX on AsPC-1 pancreatic cancer was evaluated.
as §1, with “Nude” for “In these experiments nude”, “The” for “First, the”
MNTX1 was formulated at 10 mg/mL in PBS. The 150 mg/kg dose was accomplished by a […] injection of a 10 mg/mL stock solution. Injections were done daily for 13 days, and the 10 animals were subsequently sacrificed on day 24. Treatments start after 10 days of AsPC1 pancreatic tumor cell orthotopic implantation. After two more weeks, the mice are sacrificed and tumor weight is measured for the evaluation of tumor growth inhibition effects. For control, four mice were injected according to the above schedule with PBS only. They were also sacrificed on day 24. FIG. 5 provides a schematic illustrating the experimental design of the pancreatic tumor growth inhibition studies. I.P. treatments (150 mg MNTX1/kg/each injection, 300 μl of 10 mg/ml for each injection totally for 13 times, animal number=10).
FIG. 6 provides experimental results for the pancreatic tumor growth inhibition studies showing the effects of MNTX1 on AsPC-1 pancreatic cancer. […]

[1] = Escalating dose study on mice; type: in vivo; settings: intraperitoneal injection
Method: The MNTX1 dose was established using an escalating dose study on mice. An intraperitoneal injection dose of 150 mg/kg was chosen. For a dosage of 400 mg/kg, 2 of 2 died, for a dosage of 200 mg/kg, 1 of 4 died; and for a dosage of 150 mg/kg (300 μl of 10 mg/ml), 3 of 3 survived. Therefore, a dose of 150 mg/kg (Intraperitoneal injection, I.P.) was used for each administration in the following orthotopic pancreatic tumor growth inhibition experiments.

endothelial cells = settings: cited from earlier work
VEGF expression = settings: cited from earlier work
[2] = cited from earlier work

With `C[N@+]1(CC2CC2)CC[C@@]23c4c5ccc(O)c4CC1C2(O)CCC(=O)C3O5` (single isomer, unassigned; (-)) [MNTX, (−)-R-naltrexone methobromide] the “tumor weight measured at sacrifice” value (AsPC-1 cells) was “measurably superior to the control, Gemcitabine and Avastin conditions”, the “tumor weight measured at sacrifice” value (AsPC-1 pancreatic cancer) was “measurably superior to the control” and the survived ([1]; dosage of 150 mg/kg (300 μl of 10 mg/ml)) was 3 of 3. The died ([1]; dosage of 200 mg/kg) was 1 of 4, the died ([1]; dosage of 400 mg/kg) was 2 of 2 and the “synergy with Avastin to inhibit VEGF expression” value (endothelial cells) was “synergistic”. For the same molecule, the “synergy with 5-fluorouracil” value (endothelial cells; in endothelial cells) was “synergistic”.

For `COc1ccc2cc3[n+](cc2c1OC)CCc1cc2c(cc1-3)OCO2` [berberine], the “inhibition of VEGF expression” value (VEGF expression) is given as “some inhibition”.

In the case of `C[N@+]1(CC2CC2)CC[C@]23c4c5ccc(O)c4O[C@H]2C(=O)CC[C@@]3(O)[C@H]1C5` [methylnaltrexone, reference compound], the “potentiation of the cytotoxic effect of 5-fluorouracil” value (endothelial cells) is given as ~700 ×.

For α-interferon, the adverse effects ([2]; clinically tested for MD) is given as “high rate of adverse effects” and the “clinical efficacy for MD” value ([2]; clinically tested for MD) is given as “ineffective”.

B1: Lucentis: humanized anti-VEGF antibody fragment that inhibits VEGF activity by competitive binding (antibody, chains of the INN, looked up, V domains shown)
VH: EVQLVESGGGLVQPGGSLRLSCAASGYDFTHYGMNWVRQAPGKGLEWVGWINTYTGEPTYAADFKRRFTFSLDTSKSTAYLQMNSLRAEDTAVYYCAKYPYYYGTSHWYFDVWGQGTLVTVSS
VL: DIQLTQSPSSLSASVGDRVTITCSASQDISNYLNWYQQKPGKAPKVLIYFTSSLHSGVPSRFSGSGSGTDFTLTISSLQPEDFATYYCQQYSTVPWTFGQGTKVEIK
modifications: Fab
For B1, the “patients maintaining their baseline vision” value ([2]; wet macular degeneration, after 12 months of treatment) is listed as “About 95%”.
